Results reported in PubChem BioAssay AID256 (DTP/NCI, 2004).
Values joined by “and” are separate entries in the source; they are usually repeats but may differ in a detail not shown here. Equal values may be shown once. Toxic doses and inconclusive results are not listed. How the source made its calls: active means survival T/C of 150% or more; inactive means T/C below 125% in these data.

Test system: CD2F1 mice, L1210 leukemia ip, survival T/C
Assay: NCI In Vivo Anticancer Drug Screen. Data for tumor model L1210 Leukemia (intraperitoneal) in CD2F1 (CDF1) mice
Conditions: higher = longer survival
How it was run: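 Tumor-bearing mice (transplanted tumor) were split into treated and vehicle control groups, and the measured endpoint of each treated group was divided by that of its vehicle controls.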

[1] = endpoint: mean survival time, dose: 50.0 mg/kg/injection, schedule: Q04DX003 (ip), vehicle: saline with Tween-80
[2] = endpoint: mean survival time, dose: 100.0 mg/kg/injection, schedule: Q01DX001 (ip), vehicle: saline
[3] = endpoint: mean survival time, dose: 200.0 mg/kg/injection, schedule: Q01DX001 (ip), vehicle: saline
[4] = endpoint: mean survival time, dose: 100.0 mg/kg/injection, schedule: Q04DX003 (ip), vehicle: saline
[5] = endpoint: mean survival time, dose: 200.0 mg/kg/injection, schedule: Q04DX003 (ip), vehicle: saline
[6] = endpoint: mean survival time, dose: 100.0 mg/kg/injection, schedule: Q01DX001 (ip), vehicle: saline with Tween-80
[7] = endpoint: mean survival time, dose: 200.0 mg/kg/injection, schedule: Q01DX001 (ip), vehicle: saline with Tween-80
[8] = endpoint: mean survival time, dose: 400.0 mg/kg/injection, schedule: Q01DX001 (ip), vehicle: saline with Tween-80
[9] = endpoint: mean survival time, dose: 50.0 mg/kg/injection, schedule: Q01DX009 (ip), vehicle: saline with Tween-80
[10] = endpoint: mean survival time, dose: 100.0 mg/kg/injection, schedule: Q01DX009 (ip), vehicle: saline with Tween-80
[11] = endpoint: mean survival time, dose: 200.0 mg/kg/injection, schedule: Q01DX009 (ip), vehicle: saline with Tween-80
[12] = endpoint: mean survival time, dose: 25.0 mg/kg/injection, schedule: Q01DX009 (ip), vehicle: saline with Tween-80
[13] = endpoint: mean survival time, dose: 100.0 mg/kg/injection, schedule: Q04DX003 (ip), vehicle: saline with Tween-80
[14] = endpoint: mean survival time, dose: 12.5 mg/kg/injection, schedule: Q01DX009 (ip), vehicle: saline with Tween-80
[15] = endpoint: mean survival time, dose: 200.0 mg/kg/injection, schedule: Q04DX003 (ip), vehicle: saline with Tween-80
[16] = endpoint: mean survival time, dose: 400.0 mg/kg/injection, schedule: Q04DX003 (ip), vehicle: saline with Tween-80

Measured: T/C

CC([NH-])C(=O)O.[Cl][Pt][Cl] (stereo not given)
inactive: endpoint: mean survival time, dose: 25.0 mg/kg/injection, schedule: Q04DX003 (ip), vehicle: saline 121 % of control | endpoint: mean survival time, dose: 50.0 mg/kg/injection, schedule: Q04DX003 (ip), vehicle: saline 110 % of control

Cc1cc(N2CCC(N3CCCC3)CC2)nc(/N=C(\N)Nc2ccc(Cl)c(Cl)c2)n1
inactive: endpoint: mean survival time, dose: 12.5 mg/kg/injection, schedule: Q04DX003 (ip), vehicle: saline with Tween-80 98 % of control | endpoint: mean survival time, dose: 25.0 mg/kg/injection, schedule: Q04DX003 (ip), vehicle: saline with Tween-80 101 % of control | [1] 86 % of control

O=C(O)C(O)Cn1ccccc1=O (stereo not given)
inactive: endpoint: mean survival time, dose: 50.0 mg/kg/injection, schedule: Q01DX001 (ip), vehicle: saline 104 % of control | [2] 96 % of control | [3] 101 % of control

CN(C)CCCCO
inactive: endpoint: mean survival time, dose: 50.0 mg/kg/injection, schedule: Q01DX009 (ip), vehicle: saline 98 % of control | endpoint: mean survival time, dose: 100.0 mg/kg/injection, schedule: Q01DX009 (ip), vehicle: saline 98 % of control | [4] 95 % of control | endpoint: mean survival time, dose: 200.0 mg/kg/injection, schedule: Q01DX009 (ip), vehicle: saline 97 % of control | [5] 96 % of control

C(=NCC1CCC(CN=Cc2ccco2)CC1)c1ccco1 (stereo not given)
inactive: [6] 107 % of control | [7] 101 % of control | [8] 101 % of control

O=C(C(=Nc1ccccc1)c1ccccc1)c1ccccc1
inactive: [9] 100 % of control | [10] 97 % of control | [11] 97 % of control

CNC(=O)Oc1coc(CCl)cc1=O
inactive: [12] 98 % of control | [9] 107 % of control | [1] 97 % of control | [10] 101 % of control | [13] 101 % of control

CCCC[N+](=O)[O-]
inactive: [4] 98 % of control | [5] 100 % of control | endpoint: mean survival time, dose: 400.0 mg/kg/injection, schedule: Q04DX003 (ip), vehicle: saline 102 % of control

COc1ccc(OC)c2c1CCC(=O)C2
inactive: endpoint: mean survival time, dose: 12.5 mg/kg/injection, schedule: Q01DX009 (ip), vehicle: other 102 % of control | endpoint: mean survival time, dose: 25.0 mg/kg/injection, schedule: Q01DX009 (ip), vehicle: other 104 % of control | endpoint: mean survival time, dose: 50.0 mg/kg/injection, schedule: Q01DX009 (ip), vehicle: other 102 % of control | endpoint: mean survival time, dose: 100.0 mg/kg/injection, schedule: Q01DX009 (ip), vehicle: other 107 % of control | endpoint: mean survival time, dose: 200.0 mg/kg/injection, schedule: Q01DX009 (ip), vehicle: other 107 % of control

[Pt+2].[S-]c1ccccc1.[S-]c1ccccc1.c1ccc([PH+](c2ccccc2)c2ccccc2)cc1.c1ccc([PH+](c2ccccc2)c2ccccc2)cc1
inactive: endpoint: mean survival time, dose: 3.13 mg/kg/injection, schedule: Q04DX003 (sc), vehicle: distilled water + Tween-80 97 % of control | endpoint: mean survival time, dose: 6.25 mg/kg/injection, schedule: Q04DX003 (sc), vehicle: distilled water + Tween-80 110 % of control | endpoint: mean survival time, dose: 12.5 mg/kg/injection, schedule: Q04DX003 (sc), vehicle: distilled water + Tween-80 103 % of control | endpoint: mean survival time, dose: 25.0 mg/kg/injection, schedule: Q04DX003 (sc), vehicle: distilled water + Tween-80 97 % of control | endpoint: mean survival time, dose: 50.0 mg/kg/injection, schedule: Q04DX003 (sc), vehicle: distilled water + Tween-80 91 % of control | endpoint: mean survival time, dose: 100.0 mg/kg/injection, schedule: Q04DX003 (sc), vehicle: distilled water + Tween-80 89 % of control

CCCCN1C(=O)C(=O)N(c2cc(Cl)c(OC)cc2OC)C1=O
inactive: [14] 103 % of control | [12] 88 % of control | [9] 93 % of control and 96 % of control

Clc1cc(CBr)c(CBr)cc1Cl
inactive: [14] 107 % of control | [12] 97 % of control | [9] 100 % of control

CCCCC(=O)C(=O)OC(OC(=O)C(=O)CCCC)c1ccccc1
inactive: endpoint: mean survival time, dose: 75.0 mg/kg/injection, schedule: Q01DX001 (ip), vehicle: saline 93 % of control | endpoint: mean survival time, dose: 150.0 mg/kg/injection, schedule: Q01DX001 (ip), vehicle: saline 97 % of control

COC(OC)C(OC(C)=O)C(OC(C)=O)C(COC(C)=O)OC(C)=O (stereo not given)
inactive: [2] 107 % of control | [3] 95 % of control | endpoint: mean survival time, dose: 400.0 mg/kg/injection, schedule: Q01DX001 (ip), vehicle: saline 101 % of control

CC1(C)OC2C(CF)OC(n3cc(Br)c(=O)[nH]c3=O)C2O1 (stereo not given)
inactive: endpoint: median survival time, dose: 12.5 mg/kg/injection, schedule: Q01DX005 (ip), vehicle: distilled water + Tween-80 98 % of control | endpoint: median survival time, dose: 25.0 mg/kg/injection, schedule: Q01DX005 (ip), vehicle: distilled water + Tween-80 94 % of control | endpoint: median survival time, dose: 50.0 mg/kg/injection, schedule: Q01DX005 (ip), vehicle: distilled water + Tween-80 101 % of control | endpoint: median survival time, dose: 100.0 mg/kg/injection, schedule: Q01DX005 (ip), vehicle: distilled water + Tween-80 103 % of control | endpoint: median survival time, dose: 200.0 mg/kg/injection, schedule: Q01DX005 (ip), vehicle: distilled water + Tween-80 88 % of control

S=c1[nH]n(-c2ccccc2)c(=S)s1
inactive: endpoint: mean survival time, dose: 75.0 mg/kg/injection, schedule: Q04DX003 (ip), vehicle: saline 100 % of control

CC(C)C(C)OC(=O)Nc1cccc(O)c1 (stereo not given)
inactive: [13] 99 % of control | [15] 97 % of control | [16] 97 % of control

N#Cc1cccc(N)c1
inactive: [10] 106 % of control | [11] 94 % of control | endpoint: mean survival time, dose: 400.0 mg/kg/injection, schedule: Q01DX009 (ip), vehicle: saline with Tween-80 98 % of control

Cc1cc(C)c(S(=O)(=O)Nc2cc(C)ccc2C)c(C)c1
inactive: [6] 98 % of control | [7] 96 % of control | [8] 102 % of control

C#CCNc1ncnc2c1ncn2C1OC(CO)C(O)C1O (stereo not given)
inactive: endpoint: mean survival time, dose: 12.5 mg/kg/injection, schedule: Q01DX005 (ip), vehicle: other 96 % of control | endpoint: mean survival time, dose: 25.0 mg/kg/injection, schedule: Q01DX005 (ip), vehicle: other 97 % of control | endpoint: mean survival time, dose: 50.0 mg/kg/injection, schedule: Q01DX005 (ip), vehicle: other 111 % of control | endpoint: mean survival time, dose: 100.0 mg/kg/injection, schedule: Q01DX005 (ip), vehicle: other 114 % of control | endpoint: mean survival time, dose: 200.0 mg/kg/injection, schedule: Q01DX005 (ip), vehicle: other 111 % of control

Cc1ccc2[nH]c(=O)oc(=O)c2c1
inactive: [13] 104 % of control | [15] 98 % of control | [16] 106 % of control

NC(=O)c1cnn2ccn(C3OC(CO)C(O)C3O)c12 (stereo not given)
inactive: endpoint: median survival time, dose: 9.63 mg/kg/injection, schedule: Q01DX005 (ip), vehicle: water 102 % of control | endpoint: median survival time, dose: 19.25 mg/kg/injection, schedule: Q01DX005 (ip), vehicle: water 94 % of control | endpoint: median survival time, dose: 38.5 mg/kg/injection, schedule: Q01DX005 (ip), vehicle: water 104 % of control | endpoint: median survival time, dose: 77.0 mg/kg/injection, schedule: Q01DX005 (ip), vehicle: water 100 % of control | endpoint: median survival time, dose: 154.0 mg/kg/injection, schedule: Q01DX005 (ip), vehicle: water 93 % of control

CCCCC(NC(=O)C(C)NC(=O)OCc1ccccc1)C(=O)O (stereo not given)
inactive: [13] 98 % of control | [15] 101 % of control | [16] 98 % of control
